Results on six molecules are retold here after patent US8461171B2, “Hybrid opioid compounds and compositions” (QRxPHARMA Ltd., priority 2010, dated 2013).

What all share (assay type): in vivo
Data set [1] has as its system CD1 mice. Put plainly: Behavioral observations after icv administration. Here is the method:
These curves enabled the determination of ED50 values. […] Some behavioral observations are also reported.
This behavior was not observed 10 minutes post injection. […] The animals were active for about two hours. After 24 hours, the animals maintained about 20% MPE.

For data set [2], the system named is CD1 mice. As to the kind of experiment: 24-hour tolerance study after icv administration in CD1 mice. Conditions: for MPE still present after 24 hours: 24 hours after icv administration.
Data set [3] has as its system CD1 mice. As to the kind of experiment: Intracerebroventricular (icv) antinociceptive activity in CD1 mice. The settings on record: for Icv ED50 values: CD1 mice, confidence range in brackets.
Data set [4] has as its system CD1 mice. As to the kind of experiment: Oral antinociception in CD1 mice (tail flick), morphine/oxycodone alone, combined or as prodrugs. Conditions: for oral antinociceptive activity (in words): CD1 mice.

With `CN1CC[C@]23c4c5ccc(O)c4O[C@H]2[C@@H](NC(=O)COCCOCc2cn(CCOCCOCC(=O)N[C@@H]4CC[C@@]6(O)C7Cc8ccc(O)c9c8[C@@]6(CCN7C)[C@H]4O9)nn2)CC[C@@]3(O)C1C5` [MLN II-120], the “animals showing barrel rolling and out stretched limbs” value in data set [1] (with 2 minutes of icv injection, not observed 10 minutes post injection) is on record as “about 50%”. In addition, the “24-h Tolerance Study, outcome” value in data set [2] (icv) is given as “No tolerance”. The “24-h Tolerance Study, Day 1” value in data set [2] (icv, Day 1) is 95.65 ± 4.65. Further, the “24-h Tolerance Study, Day 2” value in data set [2] (icv, Day 2) is 91.38 ± 13.08. In addition, in data set [3], the “peak time (pt), time to maximum effect” value was determined as 10 min and the “Icv ED50 values” was 0.571 nmol/mouse (0.423-0.770).
In the case of `COc1ccc2c3c1O[C@H]1/C(=N/OCC(=O)O[C@H]4C=CC5C6Cc7ccc(O)c8c7[C@@]5(CCN6C)[C@H]4O8)CC[C@@]4(O)C(C2)N(C)CC[C@]314` (stereo partly shown) [MLN II-31], in data set [4] (10 mg/kg, 4 hours after oral administration), the maximum antinociception is 25%. Moreover, the “oral antinociceptive activity (in words)” value in data set [4] (oral) was “weak antinociceptive activity”. Further, in data set [4] (oral, measured from 15 min to 24 hours), the antinociceptive activity is given as 7-20 % of MPE.
`CN1CC[C@]23c4c5ccc(O)c4O[C@H]2[C@@H](NC(=O)COCCOCCOCc2cn(CCOCCOCC(=O)N[C@H]4CC[C@@]6(O)C7Cc8ccc(O)c9c8[C@@]6(CCN7C)[C@H]4O9)nn2)CC[C@@]3(O)C1C5` [MLN II-121]: in data set [1] (after icv administration), the behavioral observations result was “pacing and had straub tails”; the “time the animals were active” value is listed as “about two”. Besides, the “MPE still present after 24 hours” value in data set [2] is on record as “about 20 % MPE”. Besides, the “MPE still present after 24 hours” value in data set [2] (listed as MLN II- 121) came out at 23.06 ± 4.30 % MPE. The “48 hour tolerance test, outcome” value in data set [2] (icv, 48 hour test) is “No tolerance”. Also, the “48 hour tolerance test, Day 1” value in data set [2] (icv, 48 hour test, Day 1) was 90.00 ± 10.69. The “48 hour tolerance test, Day 2” value in data set [2] (icv, 48 hour test, Day 2) was determined as 80.41 ± 12.06. In addition, in data set [3], the “peak time (pt), time to maximum effect” value stood at 10 min and the “Icv ED50 values” is 0.272 nmol/mouse (0.164-0.453).
Consider `COc1ccc2c3c1O[C@H]1C(=NOC(=O)O[C@H]4C=CC5C6Cc7ccc(O)c8c7[C@@]5(CCN6C)[C@H]4O8)CC[C@@]4(O)C(C2)N(C)CC[C@]314` (stereo partly shown) [MLN II-45], for which, in data set [4] (oral), the “oral antinociceptive activity (in words)” value was “the same activity as when oxycodone and morphine are administered together in a 1:1 ratio”.
With `CN1CC[C@]23c4c5ccc(O)c4O[C@H]2[C@@H](O)C=C[C@H]3[C@H]1C5` [Morphine, reference compound], in data set [3], the “peak time (pt), time to maximum effect” value was 10 min; the “peak time [pt]” value is given as 10 ′; the “Icv ED50 values” came to 2.68 nmol/mouse.
With `CN1CC[C@]23c4c5ccc(O)c4O[C@H]2[C@@H](NC(=O)COCCOCCn2cc(COCC(=O)N[C@H]4CC[C@@]6(O)C7Cc8ccc(O)c9c8[C@@]6(CCN7C)[C@H]4O9)nn2)CC[C@@]3(O)C1C5` [MLN II-83], the “MPE still present after 24 hours” value in data set [2] is 20 ± 10 % MPE. Moreover, the “24-h Tolerance Study, outcome” value in data set [2] (icv) is on record as “seems to induce some tolerance”. Also, in data set [2] (icv, Day 1), the “24-h Tolerance Study, Day 1” value was 67.95 ± 13.62. Moreover, in data set [2] (icv, Day 2), the “24-h Tolerance Study, Day 2” value is recorded as 48.35 ± 15.68. Further, in data set [3], the “peak time (pt), time to maximum effect” value is 20 min and the “Icv ED50 values” is reported as 0.190 nmol/mouse (0.065-0.558).
